Measured values: PubChem BioAssay AID2060602 (Molecular Pharmacology Branch, DTP, NCI, 2025)

Test system: 648629-189-R-J1-PDC complex spheroids viability
Assay: Anticancer human tumor 648629-189-R-J1-PDC patient-derived bladder carcinoma cell line growth inhibition [CLK]
Details: for IC50: curve of first compound; for viability, T/C: stronger effect = lower value
How it was run: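 Patient-derived tumor cells grown as complex spheroids with HUVEC endothelial cells and mesenchymal stem cells, treated with drug combinations. Concentrations descend in half-log steps from near clinical Cmax, or from 10 microM if Cmax unknown.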

[1] = second compound 0.0316 µM, first compound 0.0316 µM
[2] = second compound 0.0316 µM, first compound 0.1 µM
[3] = second compound 0.0316 µM, first compound 0.316 µM
[4] = second compound 0.0316 µM, first compound 1 µM
[5] = second compound 0.1 µM, first compound 0.0316 µM
[6] = second compound 0.1 µM, first compound 0.1 µM
[7] = second compound 0.1 µM, first compound 0.316 µM
[8] = second compound 0.1 µM, first compound 1 µM
[9] = second compound 0.316 µM, first compound 0.0316 µM
[10] = second compound 0.316 µM, first compound 0.1 µM
[11] = second compound 0.316 µM, first compound 0.316 µM
[12] = second compound 0.316 µM, first compound 1 µM
[13] = second compound 1 µM, first compound 0.0316 µM
[14] = second compound 1 µM, first compound 0.1 µM
[15] = second compound 1 µM, first compound 0.316 µM
[16] = second compound 1 µM, first compound 1 µM
[17] = second compound 3.16 µM, first compound 0.0316 µM
[18] = second compound 3.16 µM, first compound 0.1 µM
[19] = second compound 3.16 µM, first compound 0.316 µM
[20] = second compound 3.16 µM, first compound 1 µM
[21] = second compound 10 µM, first compound 0.0316 µM
[22] = second compound 10 µM, first compound 0.1 µM
[23] = second compound 10 µM, first compound 0.316 µM
[24] = second compound 10 µM, first compound 1 µM
[25] = second compound 0.0316 µM, first compound 0.00316 µM
[26] = second compound 0.0316 µM, first compound 0.01 µM
[27] = second compound 0.1 µM, first compound 0.00316 µM
[28] = second compound 0.1 µM, first compound 0.01 µM
[29] = second compound 0.316 µM, first compound 0.00316 µM
[30] = second compound 0.316 µM, first compound 0.01 µM
[31] = second compound 1 µM, first compound 0.00316 µM
[32] = second compound 1 µM, first compound 0.01 µM
[33] = second compound 3.16 µM, first compound 0.00316 µM
[34] = second compound 3.16 µM, first compound 0.01 µM
[35] = second compound 10 µM, first compound 0.00316 µM
[36] = second compound 10 µM, first compound 0.01 µM
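For viability, T/C in this document: drug exposure lasted seven days before viability readout; 100% = DMSO vehicle control wells.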

C=CC(=O)Nc1cc(Nc2nccc(-c3cn(C)c4ccccc34)n2)c(OC)cc1N(C)CCN(C)C + CNC(=O)c1ccc(Nc2nc(OC3CCCC3)c3c(-c4ccc5nc(C)oc5c4)c[nH]c3n2)c(OC)c1
IC50 (second compound 0.0316 µM): > 0.3 µM | IC50 (second compound 0.1 µM): 0.132 µM | IC50 (second compound 0.316 µM): < 0.000949 µM | IC50 (second compound 1 µM): < 0.000949 µM | IC50 (second compound 3.16 µM): < 0.000949 µM | IC50 (second compound 10 µM): < 0.000949 µM | viability, T/C (second compound 0.0316 µM, first compound 0.000949 µM): 92.6% | viability, T/C (second compound 0.0316 µM, first compound 0.003 µM): 103% | viability, T/C (second compound 0.0316 µM, first compound 0.00949 µM): 102% | viability, T/C (second compound 0.0316 µM, first compound 0.03 µM): 97.1% | viability, T/C (second compound 0.0316 µM, first compound 0.0949 µM): 100% | viability, T/C (second compound 0.0316 µM, first compound 0.3 µM): 95.4% | viability, T/C (second compound 0.1 µM, first compound 0.000949 µM): 83.9% | viability, T/C (second compound 0.1 µM, first compound 0.003 µM): 73.5% | viability, T/C (second compound 0.1 µM, first compound 0.00949 µM): 69.3% | viability, T/C (second compound 0.1 µM, first compound 0.03 µM): 66.2% | viability, T/C (second compound 0.1 µM, first compound 0.0949 µM): 51% | viability, T/C (second compound 0.1 µM, first compound 0.3 µM): 42.6% | viability, T/C (second compound 0.316 µM, first compound 0.000949 µM): 27.9% | viability, T/C (second compound 0.316 µM, first compound 0.003 µM): 27.3% | viability, T/C (second compound 0.316 µM, first compound 0.00949 µM): 21.8% | viability, T/C (second compound 0.316 µM, first compound 0.03 µM): 19% | viability, T/C (second compound 0.316 µM, first compound 0.0949 µM): 22.1% | viability, T/C (second compound 0.316 µM, first compound 0.3 µM): 15.5% | viability, T/C (second compound 1 µM, first compound 0.000949 µM): 21.3% | viability, T/C (second compound 1 µM, first compound 0.003 µM): 19.4% | viability, T/C (second compound 1 µM, first compound 0.00949 µM): 23.2% | viability, T/C (second compound 1 µM, first compound 0.03 µM): 16.1% | viability, T/C (second compound 1 µM, first compound 0.0949 µM): 16.5% | viability, T/C (second compound 1 µM, first compound 0.3 µM): 13.2% | viability, T/C (second compound 3.16 µM, first compound 0.000949 µM): 18.7% | viability, T/C (second compound 3.16 µM, first compound 0.003 µM): 19.8% | viability, T/C (second compound 3.16 µM, first compound 0.00949 µM): 16.6% | viability, T/C (second compound 3.16 µM, first compound 0.03 µM): 16.1% | viability, T/C (second compound 3.16 µM, first compound 0.0949 µM): 16.3% | viability, T/C (second compound 3.16 µM, first compound 0.3 µM): 14.8% | viability, T/C (second compound 10 µM, first compound 0.000949 µM): 18.5% | viability, T/C (second compound 10 µM, first compound 0.003 µM): 22.1% | viability, T/C (second compound 10 µM, first compound 0.00949 µM): 22.6% | viability, T/C (second compound 10 µM, first compound 0.03 µM): 17.6% | viability, T/C (second compound 10 µM, first compound 0.0949 µM): 17.9% | viability, T/C (second compound 10 µM, first compound 0.3 µM): 13.8%

CC(Nc1ccc2c(c1)OCCn1cc(N3C(=O)OCC3C(F)F)nc1-2)C(N)=O (stereo not drawn) + CNC(=O)c1ccc(Nc2nc(OC3CCCC3)c3c(-c4ccc5nc(C)oc5c4)c[nH]c3n2)c(OC)c1
IC50 (second compound 0.0316 µM): 5.87 µM | IC50 (second compound 0.1 µM): 9.49 µM | IC50 (second compound 0.316 µM): < 0.0316 µM | IC50 (second compound 1 µM): < 0.0316 µM | IC50 (second compound 3.16 µM): < 0.0316 µM | IC50 (second compound 10 µM): < 0.0316 µM | viability, T/C [1]: 114% | viability, T/C [2]: 106% | viability, T/C [3]: 89.4% | viability, T/C [4]: 67.8% | viability, T/C (second compound 0.0316 µM, first compound 3.16 µM): 64.9% | viability, T/C (second compound 0.0316 µM, first compound 10 µM): 40.6% | viability, T/C [5]: 95.7% | viability, T/C [6]: 89.9% | viability, T/C [7]: 84.1% | viability, T/C [8]: 77.3% | viability, T/C (second compound 0.1 µM, first compound 3.16 µM): 62.2% | viability, T/C (second compound 0.1 µM, first compound 10 µM): 49.6% | viability, T/C [9]: 27.7% | viability, T/C [10]: 37.6% | viability, T/C [11]: 33.7% | viability, T/C [12]: 34% | viability, T/C (second compound 0.316 µM, first compound 3.16 µM): 31.2% | viability, T/C (second compound 0.316 µM, first compound 10 µM): 27.1% | viability, T/C [13]: 17% | viability, T/C [14]: 22.3% | viability, T/C [15]: 18.5% | viability, T/C [16]: 17.5% | viability, T/C (second compound 1 µM, first compound 3.16 µM): 16.6% | viability, T/C (second compound 1 µM, first compound 10 µM): 14.8% | viability, T/C [17]: 16.7% | viability, T/C [18]: 20.3% | viability, T/C [19]: 16.1% | viability, T/C [20]: 17.8% | viability, T/C (second compound 3.16 µM, first compound 3.16 µM): 12.9% | viability, T/C (second compound 3.16 µM, first compound 10 µM): 15.9% | viability, T/C [21]: 21.5% | viability, T/C [22]: 19.8% | viability, T/C [23]: 17.2% | viability, T/C [24]: 15% | viability, T/C (second compound 10 µM, first compound 3.16 µM): 21.8% | viability, T/C (second compound 10 µM, first compound 10 µM): 11.5%

CCN1CCN(Cc2ccc(Nc3ncc(F)c(-c4cc(F)c5nc(C)n(C(C)C)c5c4)n3)nc2)CC1 + CNC(=O)c1ccc(Nc2nc(OC3CCCC3)c3c(-c4ccc5nc(C)oc5c4)c[nH]c3n2)c(OC)c1
IC50 (second compound 0.0316 µM): > 1 µM | IC50 (second compound 0.1 µM): > 1 µM | IC50 (second compound 0.316 µM): < 0.00316 µM | IC50 (second compound 1 µM): < 0.00316 µM | IC50 (second compound 3.16 µM): < 0.00316 µM | IC50 (second compound 10 µM): < 0.00316 µM | viability, T/C [25]: 98.4% | viability, T/C [26]: 103% | viability, T/C [1]: 107% | viability, T/C [2]: 100% | viability, T/C [3]: 113% | viability, T/C [4]: 136% | viability, T/C [27]: 81.3% | viability, T/C [28]: 92.8% | viability, T/C [5]: 104% | viability, T/C [6]: 80.7% | viability, T/C [7]: 102% | viability, T/C [8]: 129% | viability, T/C [29]: 30.2% | viability, T/C [30]: 28.1% | viability, T/C [9]: 24.2% | viability, T/C [10]: 28.4% | viability, T/C [11]: 36.4% | viability, T/C [12]: 39.6% | viability, T/C [31]: 17.2% | viability, T/C [32]: 23% | viability, T/C [13]: 19.1% | viability, T/C [14]: 24.1% | viability, T/C [15]: 21.5% | viability, T/C [16]: 31.1% | viability, T/C [33]: 18.2% | viability, T/C [34]: 18.6% | viability, T/C [17]: 20.9% | viability, T/C [18]: 17.8% | viability, T/C [19]: 23.9% | viability, T/C [20]: 25.1% | viability, T/C [35]: 16.2% | viability, T/C [36]: 18.9% | viability, T/C [21]: 18.1% | viability, T/C [22]: 18.9% | viability, T/C [23]: 24.3% | viability, T/C [24]: 23.8%

COc1c(OCCCN2CCOCC2)ccc2c3n(c(=NC(=O)c4cnc(N)nc4)nc12)CCN3 + CNC(=O)c1ccc(Nc2nc(OC3CCCC3)c3c(-c4ccc5nc(C)oc5c4)c[nH]c3n2)c(OC)c1
IC50 (second compound 0.0316 µM): 0.0928 µM | IC50 (second compound 0.1 µM): 0.093 µM | IC50 (second compound 0.316 µM): < 0.00316 µM | IC50 (second compound 1 µM): < 0.00316 µM | IC50 (second compound 3.16 µM): < 0.00316 µM | IC50 (second compound 10 µM): < 0.00316 µM | viability, T/C [25]: 94.5% | viability, T/C [26]: 92.6% | viability, T/C [1]: 88.2% | viability, T/C [2]: 46.9% | viability, T/C [3]: 15.3% | viability, T/C [4]: 8.61% | viability, T/C [27]: 101% | viability, T/C [28]: 105% | viability, T/C [5]: 80.6% | viability, T/C [6]: 49.1% | viability, T/C [7]: 17.6% | viability, T/C [8]: 8.37% | viability, T/C [29]: 30.4% | viability, T/C [30]: 31.4% | viability, T/C [9]: 34.1% | viability, T/C [10]: 31.3% | viability, T/C [11]: 17.9% | viability, T/C [12]: 8.81% | viability, T/C [31]: 19.9% | viability, T/C [32]: 19.9% | viability, T/C [13]: 16.1% | viability, T/C [14]: 14.5% | viability, T/C [15]: 11.1% | viability, T/C [16]: 5.6% | viability, T/C [33]: 16.3% | viability, T/C [34]: 15.8% | viability, T/C [17]: 16.1% | viability, T/C [18]: 11.2% | viability, T/C [19]: 7.88% | viability, T/C [20]: 4.37% | viability, T/C [35]: 19.9% | viability, T/C [36]: 18.3% | viability, T/C [21]: 16.9% | viability, T/C [22]: 13.4% | viability, T/C [23]: 9.26% | viability, T/C [24]: 5.85%
